Source: patent US20090246273A1, “Ketorolac Sublingual Spray for the Treatment of Pain” (priority 2008, published 2009)

Tests used:
[1] = In vivo absorption of ketorolac spray from the sublingual cavity (plasma levels vs intravenous); set-up: species or system rabbit; details: rabbits
Method: These experiments determine the bioavailability of ketorolac after transmucosal administration to the sublingual tissue in rabbit and compare it to that after intravenous administration.
The transmucosal absorption of ketorolac was measured using an in vivo technique in rabbits. Following introduction of lidocaine local anesthesia, a catheter was placed in the marginal ear artery of the rabbit for blood sample collection. For intravenous administration, a catheter was placed in the marginal ear vein of the rabbit and ketorolac aqueous solution (0.5 mg/kg, 0.1 mL) was administered; a sterile drug solution was prepared by filtration (double 0.22 μm filters). A dose of […] ketorolac was injected into the marginal ear vein cannula followed by a 0.1 mL flush with 10% (v/v) heparin/normal saline solution to keep the cannula patent.
For sublingual spray administration, the ketorolac dose (3 mg/kg, 0.1 mL) of the ketorolac formulation was applied by spray to the sublingual mucosa of the rabbit.
Aliquot parts of 0.5 mL blood samples were collected at predetermined time points, collected into pre-heparinized tubes and immediately placed on ice. […]
Bioavailability of sublingually administered drug was calculated by comparing the plasma drug concentration between sublingual and intravenous delivery routes and expressed as a percentage of the intravenous bioavailability. […]

[2] = rapid metabolism of ketorolac; background on the intravenous mode of delivery; cited from earlier work

time of peak plasma concentration following transmucosal administration ([1]; sublingual spray 3 mg/kg single dose, n=3): approximately 10 minutes
absorption following transmucosal administration through the sublingual route (comparing areas under the plasma concentration versus time curves) ([1]; sublingual spray 3 mg/kg vs intravenous 0.5 mg/kg, over 180 minutes): rapidly and completely absorbed
SMILES: O=C(c1ccccc1)c1ccc2n1CCC2C(=O)O (stereo not drawn) [ketorolac, 5-benzoyl-2,3-dihydro-1H-Pyrrolizine-1-carboxylic acid]
half-life [2]: 4 to 5 h
